Values after ≈ are worked out from the molar mass of the structure shown. Where two headings read alike, the source gives them in different places.
What was measured:
[1] = tested on: P. aeruginosa ATCC 15442; assay: MIC, twofold microdilution, standard strain; format: cell-based, Pseudomonas aeruginosa; settings: Pseudomonas aeruginosa, ATCC15442; standard strain, 18 h
[2] = tested on: S. epidermidis ATCC 35984; assay: MIC, twofold microdilution, standard strain; format: cell-based; settings: Staphylococcus epidermidis, ATCC35984, 18 h
[3] = tested on: S. epidermidis ATCC 12228; assay: MIC, twofold microdilution, standard strain; format: cell-based; settings: Staphylococcus epidermidis, ATCC12228, 18 h
[4] = tested on: P. aeruginosa 659; assay: MIC, twofold microdilution, clinical strain; format: cell-based; settings: Pseudomonas aeruginosa, 18 h
[5] = tested on: Staphylococci (standard strains); assay: MIC, standard Gram-positive strains as a panel; format: cell-based, S. aureus, S. epidermidis; settings: for MIC: read-out: MIC toward standard Staphylococci (range over strains)
[6] = tested on: M. tuberculosis H37Rv; assay: Tuberculostatic activity, Microplate Alamar Blue Assay (MIC); format: cell-based, Mycobacterium tuberculosis; settings: Mycobacterium tuberculosis, H37RV; MABA; read-out: MIC M. tuberculosis H37Rv
[7] = tested on: E. coli 951; assay: MIC, twofold microdilution, clinical strain; format: cell-based; settings: Escherichia coli, 18 h
[8] = tested on: clinical bacterial strains; assay: MIC, clinical isolates as groups of strains; format: cell-based
[9] = tested on: K. pneumoniae 510; assay: MIC, twofold microdilution, clinical strain; format: cell-based, Klebsiella pneumoniae; settings: Klebsiella pneumoniae, 510; clinical strain, 18 h
[10] = tested on: P. aeruginosa ATCC 15442 and E. coli ATCC 25922; assay: MIC, standard Gram-negative rods as a panel; format: cell-based; settings: P. aeruginosa ATCC 15442, E. coli ATCC 25922; read-out: MIC against standard Gram-negative rods (range over strains)
[11] = tested on: S. aureus ATCC 25923; assay: MIC, twofold microdilution, standard strain; format: cell-based; settings: Staphylococcus aureus, ATCC25923, 18 h
[12] = tested on: S. aureus T5595; assay: MIC, twofold microdilution, clinical strain; format: cell-based, Staphylococcus aureus; settings: Staphylococcus aureus, T5595, 18 h
[13] = tested on: E. coli 600; assay: MIC, twofold microdilution, clinical strain; format: cell-based, Escherichia coli; settings: Escherichia coli, 600, 18 h
[14] = tested on: M. tuberculosis Spec 210; assay: microbe, parasite or virus in culture; format: cell-based, Mycobacterium tuberculosis; settings: M. tuberculosis Spec. 210
[15] = tested on: E. cloacae 8; assay: MIC, twofold microdilution, clinical strain; format: cell-based, Escherichia cloacae; settings: Enterobacter cloacae, 8; clinical strain, 18 h
[16] = tested on: S. epidermidis 5253; assay: MIC, twofold microdilution, clinical strain; format: cell-based, Staphylococcus epidermidis; settings: for MIC: Staphylococcus epidermidis, 5253, 18 h
[17] = tested on: P. aeruginosa 37; assay: MIC, twofold microdilution, clinical strain; format: cell-based; settings: Pseudomonas aeruginosa, 18 h
[18] = tested on: S. epidermidis KR4243/1; assay: MIC, twofold microdilution, clinical strain; format: cell-based; settings: Staphylococcus epidermidis, 18 h
[19] = tested on: S. pasteuri KR 4358; assay: MIC, twofold microdilution, clinical strain; format: cell-based; settings: Staphylococcus pasteuri, KR4358, 18 h
[20] = tested on: PC3 cells; assay: MTT assay, cytotoxic activity; format: cell-based, human; settings: Homo sapiens, PC-3, 72 h, MTT, 72 h
How it was run: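 Cytotoxicity readout: relative MTT level (%), i.e. absorbance of compound-treated PC3 cells divided by that of untreated controls, ×100. Cultures were kept in a humidified 37 °C, 5% CO2 incubator.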

[21] = tested on: S. aureus T5591; assay: MIC, twofold microdilution, clinical strain; format: cell-based, Staphylococcus aureus; settings: Staphylococcus aureus, T5591, 18 h
[22] = tested on: S. aureus 5595; assay: MIC, twofold microdilution, clinical strain; format: cell-based; settings: Staphylococcus aureus, 18 h
[23] = tested on: K. pneumoniae 28; assay: MIC, twofold microdilution, clinical strain; format: cell-based; settings: Klebsiella pneumoniae, 18 h
[24] = tested on: S. aureus NCTC 4163; assay: MIC, twofold microdilution, standard strain; format: cell-based; settings: Staphylococcus aureus, NCTC4163, 18 h
[25] = tested on: E. coli 520; assay: MIC, twofold microdilution, clinical strain; format: cell-based; settings: Escherichia coli, 18 h
[26] = biological target: T1, S. aureus topoisomerase IV (Staphylococcus aureus, UniProt P0C1S7+P0C1U9); assay: Topoisomerase IV decatenation assay; format: biochemical; settings: decatenation of kinetoplast DNA; read-out: IC50 S. aureus topoisomerase IV (converted)
T1 construct: purchased Inspiralis, Norwich, UK
Description: Briefly, 1 U of the enzyme (gyrase or topo IV, Inspiralis. Norwich, UK) isolated from S. aureus converts 0.5 mg of relaxed pBR322 DNA to the supercoiled form (gyrase) or decatenates 200 ng of kinetoplast DNA (topo IV). […] The reactions were terminated by adding an equal volume of STEB buffer (40% sucrose, 100 mM Tris–HCl pH 8, 10 mM EDTA, and 0.5 mg/mL bromophenol blue), followed by extraction with 1 volume of chloroform/isoamyl alcohol (24:1). The samples were vortexed and centrifuged, and 20 μL of the aqueous phase of each sample was loaded onto a 1% agarose gel and left for 30 min prior to electrophoresis to allow diffusion of salt. […] Gels were stained with ethidium bromide and visualized under UV light in a transilluminator (ChemiDoc MP, Bio Rad).

[27] = tested on: S. aureus 180; assay: MIC, twofold microdilution, clinical strain; format: cell-based; settings: Staphylococcus aureus, 18 h
[28] = tested on: S. aureus ATCC 29213; assay: MIC, twofold microdilution, standard strain; format: cell-based; settings: Staphylococcus aureus, ATCC29213, 18 h
[29] = biological target: S. aureus DNA gyrase (Staphylococcus aureus, UniProt P0A0K8+P20831); assay: biochemical; settings: supercoiling of relaxed pBR322
Description: The enzymatic assay was carried using commercial topoisomerases type II as previously described by Alt et al.[55] with some modifications.
Briefly, 1 U of the enzyme (gyrase or topo IV, Inspiralis. Norwich, UK) isolated from S. aureus converts […] of relaxed pBR322 DNA to the supercoiled form (gyrase) or decatenates 200 ng of kinetoplast DNA (topo IV). […] The reactions were terminated by adding an equal volume of STEB buffer (40% sucrose, 100 mM Tris–HCl pH 8, 10 mM EDTA, and 0.5 mg/mL bromophenol blue), followed by extraction with 1 volume of chloroform/isoamyl alcohol (24:1). The samples were vortexed and centrifuged, and 20 μL of the aqueous phase of each sample was loaded onto a 1% agarose gel and left for 30 min prior to electrophoresis to allow diffusion of salt. […] Gels were stained with ethidium bromide and visualized under UV light in a transilluminator (ChemiDoc MP, Bio Rad).

[30] = MTT assay, cytotoxic activity; format: cell-based; settings: human, HaCaT cells (immortal keratinocytes); MTT, 72 h, normal cell line; read-out: IC50 HaCaT
How it was run: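 Viability was calculated as A/B × 100%, with A the absorbance of treated samples and B that of untreated controls, from MTT reduction. Cells were cultured in a humidified 37 °C/5% CO2 incubator.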

[31] = tested on: E. coli ATCC 25922; assay: MIC, twofold microdilution, standard strain; format: cell-based, Escherichia coli; settings: Escherichia coli, ATCC25922; standard strain, 18 h
[32] = tested on: S. aureus ATCC 6538; assay: MIC, twofold microdilution, standard strain; format: cell-based, Staphylococcus aureus; settings: Staphylococcus aureus, ATCC6538; standard strain, 18 h
[33] = tested on: S. epidermidis 4341; assay: MIC, twofold microdilution, clinical strain; format: cell-based; settings: Staphylococcus epidermidis, 18 h
[34] = tested on: M. tuberculosis Spec. 192; assay: Tuberculostatic activity, Microplate Alamar Blue Assay (MIC); format: cell-based; settings: Mycobacterium tuberculosis, MABA, read-out: MIC M. tuberculosis Spec. 192 (sensitive to tuberculostatics)
[35] = standard Gram-positive strains of Table 1

Sequence of S. aureus DNA gyrase (P0A0K8 whole entry): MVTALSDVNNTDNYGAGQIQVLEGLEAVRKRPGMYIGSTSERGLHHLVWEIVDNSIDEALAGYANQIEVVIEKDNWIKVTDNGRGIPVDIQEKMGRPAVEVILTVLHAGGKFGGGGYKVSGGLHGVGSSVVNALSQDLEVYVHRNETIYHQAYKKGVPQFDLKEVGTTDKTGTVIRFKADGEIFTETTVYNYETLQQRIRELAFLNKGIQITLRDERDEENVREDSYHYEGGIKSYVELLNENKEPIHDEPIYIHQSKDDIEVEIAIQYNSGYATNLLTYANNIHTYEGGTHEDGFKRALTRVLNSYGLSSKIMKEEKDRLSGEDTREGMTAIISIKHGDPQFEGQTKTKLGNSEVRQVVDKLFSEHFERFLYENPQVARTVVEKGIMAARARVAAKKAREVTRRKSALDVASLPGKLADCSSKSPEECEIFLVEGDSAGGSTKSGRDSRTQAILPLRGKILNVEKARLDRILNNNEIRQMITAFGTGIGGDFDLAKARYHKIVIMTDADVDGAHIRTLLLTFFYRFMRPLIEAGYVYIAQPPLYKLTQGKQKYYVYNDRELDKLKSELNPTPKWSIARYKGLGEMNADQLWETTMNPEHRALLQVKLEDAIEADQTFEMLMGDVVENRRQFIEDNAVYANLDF
Sequence of S. aureus DNA gyrase (P20831 whole entry): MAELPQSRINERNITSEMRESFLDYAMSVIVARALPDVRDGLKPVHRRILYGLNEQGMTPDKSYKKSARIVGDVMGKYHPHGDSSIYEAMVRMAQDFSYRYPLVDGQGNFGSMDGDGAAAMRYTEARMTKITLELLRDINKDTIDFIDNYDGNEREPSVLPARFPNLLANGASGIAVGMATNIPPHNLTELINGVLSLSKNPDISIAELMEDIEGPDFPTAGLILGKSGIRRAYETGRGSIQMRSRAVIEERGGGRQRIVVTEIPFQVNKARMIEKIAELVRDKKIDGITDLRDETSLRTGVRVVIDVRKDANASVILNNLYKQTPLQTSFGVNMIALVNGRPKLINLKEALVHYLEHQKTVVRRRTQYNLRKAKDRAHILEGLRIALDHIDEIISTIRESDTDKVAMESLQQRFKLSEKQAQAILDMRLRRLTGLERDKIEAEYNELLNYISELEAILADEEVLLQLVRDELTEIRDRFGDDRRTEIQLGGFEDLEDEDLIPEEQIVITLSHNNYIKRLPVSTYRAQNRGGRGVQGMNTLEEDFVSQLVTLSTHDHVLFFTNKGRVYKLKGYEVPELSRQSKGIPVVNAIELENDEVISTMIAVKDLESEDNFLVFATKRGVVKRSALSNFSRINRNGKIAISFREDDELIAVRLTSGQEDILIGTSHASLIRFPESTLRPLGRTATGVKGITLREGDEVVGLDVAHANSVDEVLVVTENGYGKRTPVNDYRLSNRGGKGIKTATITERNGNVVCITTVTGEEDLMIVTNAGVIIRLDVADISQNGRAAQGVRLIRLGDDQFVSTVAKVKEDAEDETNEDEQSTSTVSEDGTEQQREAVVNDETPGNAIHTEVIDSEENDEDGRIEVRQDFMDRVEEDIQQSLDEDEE
T1 sequence (P0C1U9 whole entry): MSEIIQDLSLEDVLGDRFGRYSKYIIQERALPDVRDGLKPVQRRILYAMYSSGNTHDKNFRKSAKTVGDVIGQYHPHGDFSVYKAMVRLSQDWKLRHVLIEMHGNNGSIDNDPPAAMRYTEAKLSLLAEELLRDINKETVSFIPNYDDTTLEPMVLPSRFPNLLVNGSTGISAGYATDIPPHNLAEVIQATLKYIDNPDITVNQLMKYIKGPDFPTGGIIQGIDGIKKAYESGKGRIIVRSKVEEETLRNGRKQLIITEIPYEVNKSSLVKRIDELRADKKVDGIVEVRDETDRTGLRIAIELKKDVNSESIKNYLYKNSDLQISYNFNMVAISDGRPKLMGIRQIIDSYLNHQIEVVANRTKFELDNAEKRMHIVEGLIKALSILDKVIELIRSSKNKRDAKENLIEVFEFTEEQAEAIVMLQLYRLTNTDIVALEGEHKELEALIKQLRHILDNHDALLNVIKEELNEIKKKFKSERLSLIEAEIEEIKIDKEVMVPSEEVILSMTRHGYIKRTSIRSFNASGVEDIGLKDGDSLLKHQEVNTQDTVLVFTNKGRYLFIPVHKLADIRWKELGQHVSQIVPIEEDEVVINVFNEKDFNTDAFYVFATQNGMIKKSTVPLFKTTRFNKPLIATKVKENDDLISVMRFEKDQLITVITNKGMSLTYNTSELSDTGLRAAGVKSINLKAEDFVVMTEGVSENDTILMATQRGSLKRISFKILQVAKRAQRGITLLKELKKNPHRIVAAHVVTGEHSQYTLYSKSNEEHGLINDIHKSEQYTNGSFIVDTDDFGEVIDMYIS
T1 sequence (P0C1S7 whole entry): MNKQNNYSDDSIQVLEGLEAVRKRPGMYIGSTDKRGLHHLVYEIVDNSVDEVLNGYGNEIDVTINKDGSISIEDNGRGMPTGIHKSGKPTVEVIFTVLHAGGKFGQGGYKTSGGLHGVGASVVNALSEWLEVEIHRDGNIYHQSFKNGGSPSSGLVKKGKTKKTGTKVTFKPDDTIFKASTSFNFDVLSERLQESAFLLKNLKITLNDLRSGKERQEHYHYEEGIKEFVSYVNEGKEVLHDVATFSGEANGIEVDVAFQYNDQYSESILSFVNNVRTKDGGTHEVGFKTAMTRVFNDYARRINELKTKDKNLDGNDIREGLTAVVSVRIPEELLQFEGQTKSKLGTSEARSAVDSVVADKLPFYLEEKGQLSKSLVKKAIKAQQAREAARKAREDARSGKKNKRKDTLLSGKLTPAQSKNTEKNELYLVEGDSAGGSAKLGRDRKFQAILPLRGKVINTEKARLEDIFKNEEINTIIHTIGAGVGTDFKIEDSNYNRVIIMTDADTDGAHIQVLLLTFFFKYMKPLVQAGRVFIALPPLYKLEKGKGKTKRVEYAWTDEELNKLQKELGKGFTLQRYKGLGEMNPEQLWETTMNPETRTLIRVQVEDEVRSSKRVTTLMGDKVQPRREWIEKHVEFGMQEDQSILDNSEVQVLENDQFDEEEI

C=CC(=O)N1CCN(c2cc3c(cc2F)c(=O)c(C(=O)O)cn3C2CC2)CC1 [Compound 1, 7-(4-Acryloyl-piperazin-1-yl)-1-cyclopropyl-6-fluoro-4-oxo-1,4-dihydro-quinoline-3-carboxylic Acid]
MIC [1]: 3.2 µg/mL (≈ 8.3 µM) | MIC [2]: 0.05 µg/mL (≈ 0.13 µM) | MIC [3]: 0.1 µg/mL (≈ 0.259 µM) | MIC [4]: > 25.6 µg/mL | times higher potency than CP ([5]; S. aureus NCTC 4163 and ATCC 25923): 5–10 times | MIC [5]: 0.05 to 0.4 µg/mL (≈ 0.13 to 1.04 µM) | fold more active than CP toward standard Staphylococci [5, 35]: 1.25–10 fold | MIC [6]: 4 µg/mL (≈ 10.4 µM) | MIC [7]: > 25.6 µg/mL | share of CP inhibitory activity ([8]; S. aureus 180 and 5595): 62.5% | MIC [9]: > 25.6 µg/mL | MIC [10]: ≤ 1 µg/mL | MIC [11]: 0.05 µg/mL (≈ 0.13 µM) | MIC [12]: 0.4 µg/mL (≈ 1.04 µM) | MIC [13]: > 25.6 µg/mL | fold more effective than the reference tuberculostatics [14]: 8–32 fold | MIC [15]: 3.2 µg/mL (≈ 8.3 µM) | MIC [16]: > 25.6 µg/mL | MIC [17]: > 25.6 µg/mL | MIC [18]: 0.4 µg/mL (≈ 1.04 µM) | MIC [19]: 0.4 µg/mL (≈ 1.04 µM) | IC50 [20]: 68.7 ± 3.4 µM | MIC [21]: 0.8 µg/mL (≈ 2.08 µM) | MIC [22]: 0.8 µg/mL (≈ 2.08 µM) | MIC [23]: > 25.6 µg/mL | MIC [24]: 0.05 µg/mL (≈ 0.13 µM) | MIC [25]: 1.6 µg/mL (≈ 4.15 µM) | IC50 [26]: 25.9 µM | MIC [27]: 0.8 µg/mL (≈ 2.08 µM) | MIC [28]: 0.1 µg/mL (≈ 0.259 µM) | IC50 [29]: 23.9 µM | IC50 at 72 h [30]: 100 ± 1.2 µM | MIC [31]: 0.1 µg/mL (≈ 0.259 µM) | MIC [32]: 0.05 µg/mL (≈ 0.13 µM) | MIC [33]: > 25.6 µg/mL | MIC [34]: 4 µg/mL (≈ 10.4 µM)

O=C(O)c1cn(C2CC2)c2cc(N3CCN(C(=O)CCCl)CC3)c(F)cc2c1=O [Compound 4, 7-[4-(3-Chloropropionyl)-piperazin-1-yl]-1-cyclopropyl-6-fluoro-4-oxo-1,4-dihydro-quinoline-3-carboxylic Acid]
MIC [1]: 12.8 µg/mL (≈ 30.3 µM) | MIC [2]: 0.2 µg/mL (≈ 0.474 µM) | MIC [3]: 0.2 µg/mL (≈ 0.474 µM) | MIC [4]: > 25.6 µg/mL | MIC [5, 35]: 0.1 to 0.8 µg/mL (≈ 0.237 to 1.9 µM) | MIC [6]: 2 µg/mL (≈ 4.74 µM) | MIC [7]: 25.6 µg/mL (≈ 60.7 µM) | fold more effective than CP ([8]; S. aureus 180 and 5595): 2.5 fold | share of the reference (CP) activity ([8]; S. aureus T5595 and T5591): 62.5% | MIC ([8]; clinical strains, read-out: MIC against selected E. coli and E. cloacae strains): 0.1 to 0.8 µg/mL (≈ 0.237 to 1.9 µM) | MIC [9]: > 25.6 µg/mL | MIC [11]: 0.4 µg/mL (≈ 0.948 µM) | MIC [12]: 0.4 µg/mL (≈ 0.948 µM) | MIC [13]: 0.8 µg/mL (≈ 1.9 µM) | fold more effective than the reference tuberculostatics [14]: 8–32 fold | MIC [15]: 0.8 µg/mL (≈ 1.9 µM) | MIC S. epidermidis 5253 ([16]; 18 h): 25.6 µg/mL (≈ 60.7 µM) | MIC [16]: 12.8 to 25.6 µg/mL (≈ 30.3 to 60.7 µM) | MIC [17]: > 25.6 µg/mL | MIC [18]: 0.2 µg/mL (≈ 0.474 µM) | MIC [19]: 0.2 µg/mL (≈ 0.474 µM) | IC50 [20]: 51.6 ± 8.1 µM | MIC [21]: 0.4 µg/mL (≈ 0.948 µM) | MIC [22]: 0.2 µg/mL (≈ 0.474 µM) | MIC [23]: > 25.6 µg/mL | MIC [24]: 0.2 µg/mL (≈ 0.474 µM) | MIC [25]: 0.8 µg/mL (≈ 1.9 µM) | MIC [27]: 0.2 µg/mL (≈ 0.474 µM) | MIC [28]: 0.2 µg/mL (≈ 0.474 µM) | IC50 at 72 h [30]: > 100 µM | MIC [31]: 3.2 µg/mL (≈ 7.59 µM) | MIC [32]: 0.2 µg/mL (≈ 0.474 µM) | MIC [33]: 6.4 µg/mL (≈ 15.2 µM) | MIC [34]: 1 µg/mL (≈ 2.37 µM)
